Source: PubChem BioAssay AID504542 (Sanford-Burnham Center for Chemical Genomics, 2011)
The source made the active and inactive calls. The rule behind the calls is not given here.

test system: S. cerevisiae TIM10 counterscreen strain, luminescence; test: inhibitors of TIM10 yeast strain luminescence, dose response, counter-screen for tim10-1 inhibitor project, S. cerevisiae, uHTS hits (AID 504542)

Compound	IC50
CNC(=O)c1nnsc1S(=O)(=O)c1ccc(Cl)cc1	12.9 µM
COc1ccc(-n2cc(-c3ccccc3)c3c(=S)nc[nH]c32)cc1	> 100 µM (inactive)
Cc1ccc(NC(=O)c2cc(S(=O)(=O)NCCC3=CCCCC3)ccc2F)cc1	12.3 µM
O=C(NNC(=S)Nc1cccc(C(F)(F)F)c1)c1ccc(Cl)cc1Cl	8.13 µM
O=C(c1cc(COc2ccc(F)cc2Cl)on1)N1CCN(c2cnccn2)CC1	3.98 µM
Nc1c(C(=O)Nc2ccccc2)c2nc3ccccc3nc2n1CCCN1CCOCC1	9.74 µM
Cn1c(/C=C/c2ccc([N+](=O)[O-])o2)nc2ccccc2c1=O	4.94 µM
O=S(=O)(CCN(CCS(=O)(=O)C(F)(F)F)CC1CCCO1)C(F)(F)F (stereo unspecified)	5.4 µM
CC(=O)N1CCN(c2cc(N3CCc4ccccc4C3)c(F)cc2[N+](=O)[O-])CC1	19.6 µM
NNc1nc(-c2ccccc2)c2cc(Br)ccc2n1	15.9 µM
O=C(Nc1cccnc1)c1cn(-c2ccccc2)nc1-c1cccs1	8.73 µM
O=C(NNC(=S)Nc1ccc(Cl)cc1)c1ccccc1OC(F)F	4.44 µM
COc1ccc(/C=C/C(=O)c2ccccc2)cc1Cn1nnc2ccccc21	3.86 µM
Cc1cc(C)c(CSc2ncc(-c3ccc([N+](=O)[O-])cc3)[nH]2)c(C)c1	10.1 µM
COc1ccc2cc3cc(C(=O)NCCN4CCc5ccccc5C4)oc3nc2c1	< 0.2 µM
CCCCNC(=S)Nc1ccc(C(F)(F)F)cc1	9.88 µM
N/C(Cc1ccc(Cl)cc1)=N\OC(=O)c1ccc2ccccc2c1	0.26 µM
Cc1ccc(NC(=S)Nc2ccc(Cl)c(Cl)c2)c(OC(F)F)c1	9.07 µM
CC(C)(C)c1ccc(CN2N=Nc3ccccc3S2(=O)=O)cc1	2.99 µM
CC(C)(C)OC(=O)N[C@@H](Cc1ccccc1)c1nnc(S(=O)(=O)Cc2cccc(F)c2)o1	1.19 µM
COc1ccc(/C(N)=N/OC(=O)c2ccc3c(c2)OCO3)cc1	4.94 µM
N/C(Cc1ccc(Cl)cc1Cl)=N\OC(=O)Cc1ccc(Cl)cc1	0.74 µM
c1ccc(Nc2cccc(Nc3ccccc3)n2)cc1	5.97 µM

Compound	IC50
NC(=NCCCCCCN=C(N)/N=C(\N)Nc1ccc(Cl)cc1)/N=C(\N)Nc1ccc(Cl)cc1	> 100 µM (inactive)
CCOC(=O)c1ccc(N2C(=O)C=CC2=O)cc1	0.41 µM
CC(C)NC(=S)N/N=C1\CCCCc2ccccc21	3.66 µM
O=C(O)/C=C/C(=O)c1ccc2c(c1)CCc1ccccc1-2	3.32 µM
O=C(/C=C\c1ccc(-c2ccccc2)o1)c1ccccc1	2.39 µM
N/C(=N\OC(=O)CCC1CCCC1)c1ccccc1	16.8 µM
O=c1c2ccccc2[se]n1-c1ccccc1	0.58 µM
N/C(=N\OC(=O)CCCc1ccccc1)c1ccccc1Cl	7.22 µM
CCCn1c(CC)nc([N+](=O)[O-])c1S(=O)(=O)c1ccccc1	2.72 µM
COc1ccc(C(=O)O/N=C(\N)c2ccc(Br)cc2)cc1	7.29 µM
COc1ccc(C(=O)O/N=C(\N)c2ccc(Cl)cc2)cc1	4.07 µM
COc1ccc(Cl)cc1NC(=S)NCCc1ccc(F)cc1	11.3 µM
CCCCCCCCCCOC(=O)Cn1c(COc2ccccc2OC)[n+](C)c2ccccc21	8.06 µM
Cc1nonc1C1CCCN1C(=O)c1cc(COc2cccc(C(F)(F)F)c2)on1 (stereo unspecified)	9.73 µM
O=C(NC(=S)Nc1ccccc1N1CCCC1)c1ccc([N+](=O)[O-])cc1	8.53 µM
Cc1ccccc1OCC(=O)Nc1ccc(S(=O)(=O)N2CCCC2)cc1	5.36 µM
Nc1nc(N)c(C=Nc2ccc(Br)cc2)c(Nc2ccc(Br)cc2)n1	10.8 µM
CCOc1ccccc1N1C(=O)CC(Sc2n[nH]c(-c3ccccc3)n2)C1=O (stereo unspecified)	2.27 µM
Nc1nc(-c2ccc(Br)cc2)cs1	10.4 µM
Cc1ccc(/C(N)=N/OC(=O)c2ccc3c(c2)OCO3)cc1	2.42 µM
Cc1ccc(NC2=C/C(=N\S(=O)(=O)c3cccs3)c3ccccc3C2=O)c(C)c1	3.94 µM
Cc1cc([N+](=O)[O-])ccc1-c1ccc(C2Nc3ccccc3C(=O)N2O)o1 (stereo unspecified)	9.76 µM
S=C(NCCCc1ccccc1)Nc1ccc(Cl)cc1	3.88 µM
